Assay results: US12264134B2 (Merck Sharp & Dohme LLC, priority 2018, dated 2025)

Biological target: IDO1 (Homo sapiens, UniProt P14902)
Test: IDO1 Cellular Assay in HeLa Cells Stimulated with IFNγ
Type: cell-based
Settings: read-out: HeLa Cell Potency, IC50
Protocol: IDO1 Cellular Assay in HeLa Cells Stimulated with IFNγ
HeLa cells were cultured in complete HeLa culture medium (90% EMEM, 10% heat-inactivated fetal bovine serum) and expanded to about 1×10^9 cells. The cells were then collected and frozen down at 1×10^7 cells/vial in 1 mL frozen medium (90% complete HeLa culture medium, 10% DMSO).
Compounds to be tested were serially diluted in ten 3-fold steps in DMSO starting from 10 mM DMSO stocks in Echo low volume plate(s). Compound dilutions or DMSO alone were then dispensed from the dilution plate(s) into Greiner black 384-well assay plate(s) (catalog #781086, 50 nL/well) using an Echo 550 acoustic liquid handler (Labcyte).
Frozen HeLa cells were thawed and transferred into HeLa assay medium (99% complete HeLa culture medium, 1% Pen/Strep) with 20 mL medium/vial of cells. The cells were spun down at 250 g in a table top centrifuge for 5 min and suspended in same volume of HeLa assay medium. The cells were then counted and adjusted to a density of 2×10^5 cells/mL in HeLa assay medium. Sterile L-tryptophan were added to the cells with final concentration of 300 uM L-tryptophan. A small aliquot (2 mL/plate) of HeLa cells were set aside and were not treated with IFNγ, to serve as the Max-E control.
HeLa cells with and without IFNγ were dispensed to the respective wells of 384-well assay plates containing the compounds. The plates were incubated for about 48 hours at a 37° C., 5% CO2 incubator. Afterwards, 12 μL of 0.5 M methyl isonipecotate in dimethyl sulfoxide were added into each well and the plates were sealed and incubated at 37° C. without CO2 overnight. The plates were centrifuged for 1 min at 200×g. The resulting fluorescence was measured in a Spectramax plate reader (Molecular Devices) with a 400 nm excitation filter and a 510 nm emission filter.
The fluorescence intensity of each well was corrected for the background observed in wells with non-IFNγ-treated cells and was expressed as a fraction of the intensity observed in wells of IFNγ-treated cells and DMSO only. Potencies were calculated by linear least squares fit to the four parameter logistic IC50 equation.

IDO1, sequence (P14902 whole entry): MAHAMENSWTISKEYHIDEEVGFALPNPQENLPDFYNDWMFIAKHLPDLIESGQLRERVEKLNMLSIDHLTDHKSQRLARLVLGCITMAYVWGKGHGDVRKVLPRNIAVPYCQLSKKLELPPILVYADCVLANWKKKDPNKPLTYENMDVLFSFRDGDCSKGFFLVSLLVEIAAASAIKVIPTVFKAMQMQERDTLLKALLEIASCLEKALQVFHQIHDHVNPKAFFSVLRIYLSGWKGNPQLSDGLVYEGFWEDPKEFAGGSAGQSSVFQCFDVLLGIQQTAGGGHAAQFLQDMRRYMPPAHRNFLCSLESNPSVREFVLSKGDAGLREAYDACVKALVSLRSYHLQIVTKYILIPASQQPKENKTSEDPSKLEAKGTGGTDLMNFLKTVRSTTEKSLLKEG

Row | SMILES | IC50 [nM]
1 | O=C(Cn1nc(C(=O)N2CCC(O)CC2)c2c1CCC2)N1CCN(C2CCc3ccccc32)CC1 (single isomer, unassigned) [Example 436, 1-(4-(2,3-dihydro-1H-inden-1-yl)piperazin-1-yl)-2-(3-(4-hydroxypiperidine-1-carbonyl)-5,6-dihydrocyclopenta[c]pyrazol-1(4H)-yl)ethanone] | 22.8
2 | O=C(Cn1nc(C(=O)N2CCC(O)CC2)c2c1CCC2)N1CCN(C2CCc3ccccc32)CC1 (single isomer, unassigned) [Example 437, 1-(4-(2,3-dihydro-1H-inden-1-yl)piperazin-1-yl)-2-(3-(4-hydroxypiperidine-1-carbonyl)-5,6-dihydrocyclopenta[c]pyrazol-1(4H)-yl)ethanone] | 810
3 | O=C(Cn1nc(C(=O)N2CC[C@H](O)[C@H](F)C2)c2c1CCC2)N1CCN(C2CCc3ccccc32)CC1 (single isomer, unassigned) [Example 439] | 168
4 | O=C(Cn1nc(C(=O)N2CC[C@H](O)[C@H](F)C2)c2c1CCC2)N1CCN(C2CCc3ccccc32)CC1 (single isomer, unassigned) [Example 440] | 2520
5 | Cc1cccc(N2CCN(C(=O)Cn3nc(C(=O)N4CCC(O)(CF)C4)c4c3CCC4)CC2)c1C (single isomer, unassigned) [Example 482, (R or S)-1-(4-(2,3-dimethylphenyl)piperazin-1-yl)-2-(3-(3-(fluoromethyl)-3-hydroxypyrrolidine-1-carbonyl)-5,6-dihydro-cyclopenta[c]pyrazol-1(4H)-yl)ethanone] | 22.3
6 | Cc1cccc(N2CCN(C(=O)Cn3nc(C(=O)N4CCC(O)(CF)C4)c4c3CCC4)CC2)c1C (single isomer, unassigned) [Example 484, (S or R)-1-(4-(2,3-dimethylphenyl)piperazin-1-yl)-2-(3-(3-fluoromethyl)-3-hydroxypyrrolidine-1-carbonyl)-5,6-dihydrocyclopenta[c] pyrazol-1(4H)-yl) ethanone] | 42.6
7 | Cc1cccc(N2CCN(C(=O)C(C)n3nc(C(=O)N4CCC(O)CC4)c4c3CCC4)CC2)c1C (single isomer, unassigned) [Example 489, (R or S)-1-(4-(2,3-dimethylphenyl)piperazin-1-yl)-2-(3-(4-hydroxypiperidine-1-carbonyl)-5,6-dihydro-cyclopenta[c]pyrazol-1(4H)-yl)propan-1-one] | 393
8 | Cc1cccc(N2CCN(C(=O)Cn3nc(C(=O)N4CC[C@H](N5CCC(O)CC5)[C@H](F)C4)c4c3CC(F)(F)CC4)CC2)c1C (stereo in doubt) [Example 23, 2-[6,6-difluoro-3-[rac-(3R,4S)-3-fluoro-4-(4-hydroxy-1-piperidyl)piperidine-1-carbonyl]-5,7-dihydro-4H-indazol-1-yl]-1-[4-(2,3-dimethylphenyl)piperazin-1-yl]ethanone] | 77.5
9 | Cc1cccc(N2CCN(C(=O)Cn3nc(C(=O)N4CC[C@@H](N5CCC(O)CC5)[C@@H](F)C4)c4c3CC(F)(F)CC4)CC2)c1C (stereo in doubt) [Example 24, 2-[6,6-difluoro-3-[rac-(3S,4R)-3-fluoro-4-(4-hydroxy-1-piperidyl)piperidine-1-carbonyl]-5,7-dihydro-4H-indazol-1-yl]-1-[4-(2,3-dimethylphenyl)piperazin-1-yl]ethanone] | 195
10 | Cc1c(Cl)cccc1N1CCN(C(=O)Cn2nc(C(=O)N3CC[C@H](O)C(C)C3)c3c2C[C@H]2C[C@@H]32)CC1 (stereo in doubt) [Example 351, 1-(4-(3-chloro-2-methylphenyl)piperazin-1-yl)-2-((3bR,4aR)-3-((3S,4S)-4-hydroxy-3-methylpiperidine-1-carbonyl)-3b,4,4a,5-tetrahydro-1H-cyclopropa[3,4]cyclopenta[1,2-c]pyrazol-1-yl)ethanone] | 1.26
11 | Cc1c(Cl)cccc1N1CCN(C(=O)Cn2nc(C(=O)N3CCC(O)C(C)C3)c3c2C[C@H]2C[C@@H]32)CC1 (stereo in doubt) [Example 353, 1-(4-(3-chloro-2-methylphenyl)piperazin-1-yl)-2-((3bR,4aR)-3-((3R,4S)-4-hydroxy-3-methylpiperidine-1-carbonyl)-3b,4,4a,5-tetrahydro-1H-cyclopropa[3,4]cyclopenta[1,2-c]pyrazol-1-yl)ethanone] | 1.18
12 | Cc1cccc(N2CCN(C(=O)Cn3nc(C(=O)N4CCC(O)C(F)C4)c4c3C[C@H]3C[C@@H]43)C3(CC3)C2)c1C (stereo in doubt) [Example 361, 1-(7-(2,3-dimethylphenyl)-4,7-diazaspiro[2.5]octan-4-yl)-2-((3bR,4aR)-3-((3S,4S)-3-fluoro-4-hydroxypiperidine-1-carbonyl)-3b,4,4a,5-tetrahydro-1H-cyclopropa[3,4]cyclopenta[1,2-c]pyrazol-1-yl)ethanone] | 3.01
13 | Cc1cccc(N2CCN(C(=O)Cn3nc(C(=O)N4CCCC4)c4c3CC(C)(C)CC4)CC2)c1C [Example 3, 1-[4-(2,3-dimethylphenyl)piperazin-1-yl]-2-[6,6-dimethyl-3-(pyrrolidine-1-carbonyl)-5,7-dihydro-4H-indazol-1-yl]ethanone] | 130
14 | Cc1cccc(N2CCN(C(=O)Cn3nc(C(=O)N4CCCC4)c4c3CCOC4)CC2)c1C [Example 4, 1-[4-(2,3-dimethylphenyl)piperazin-1-yl]-2-[3-(pyrrolidine-1-carbonyl)-6,7-dihydro-4H-pyrano[4,3-c]pyrazol-1-yl]ethanone] | 165
15 | Cc1cccc(N2CCN(C(=O)Cn3nc(C(=O)N4CCCC4)c4c3CCC(F)(F)C4)CC2)c1C [Example 6, 2-(5,5-difluoro-3-(pyrrolidine-1-carbonyl)-4,5,6,7-tetrahydro-1H-indazol-1-yl)-1-(4-(2,3-dimethylphenyl)piperazin-1-yl)ethanone] | 8.13
16 | Cc1cccc(N2CCN(C(=O)Cn3nc(C(=O)N4CC[C@H](O)[C@H](F)C4)c4c3C(F)(F)CCC4)CC2)c1C [Example 20, 2-(7,7-Difluoro-3-((3R,4S)-3-fluoro-4-hydroxypiperidine-1-carbonyl)-4,5,6,7-tetrahydro-1H-indazol-1-yl)-1-(4-(2,3-dimethylphenyl)piperazin-1-yl)ethanone] | 381
17 | Cc1cccc(N2CCN(C(=O)Cn3nc(C(=O)N4CCC(O)CC4)c4c3CC(F)(F)CC4)CC2)c1C [Example 21, 2-(6,6-difluoro-3-(4-hydroxypiperidine-1-carbonyl)-4,5,6,7-tetrahydro-1H-indazol-1-yl)-1-(4-(2,3-dimethylphenyl)piperazin-1-yl)ethanone] | 5.13
18 | Cc1cccc(N2CCN(C(=O)Cn3nc(C(=O)N4CCN(C(=O)CO)CC4)c4c3CC(F)(F)CC4)CC2)c1C [Example 22, 2-[6,6-difluoro-3-[4-(2-hydroxyacetyl)piperazine-1-carbonyl]-5,7-dihydro-4H-indazol-1-yl]-1-[4-(2,3-dimethylphenyl)piperazin-1-yl]ethanone] | 27.5
19 | Cc1cc(C#N)ccc1N1CCN(C(=O)Cn2nc(C(=O)N3C[C@@H](C)O[C@@H](C)C3)c3c2CCC3)CC1 [Example 26, 4-[4-[2-[3-[(2S,6R)-2,6-dimethylmorpholine-4-carbonyl]-5,6-dihydro-4H-cyclopenta[c]pyrazol-1-yl]acetyl]piperazin-1-ium-1-yl]-3-methyl-benzonitrile,2,2,2-trifluoroacetate] | 478
20 | COc1c(F)cc(N2CCN(C(=O)Cn3nc(C(=O)N4C[C@@H](C)O[C@@H](C)C4)c4c3CCC4)CC2)cc1F [Example 27, 1-[4-(3,5-difluoro-4-methoxyphenyl)piperazin-1-yl]-2-{3-[(2R,6S)-2,6-dimethylmorpholine-4-carbonyl]-5,6-dihydrocyclopenta[c]pyrazol-1(4H)-yl}ethan-1-one] | 110
21 | C[C@@H]1CN(C(=O)c2nn(CC(=O)N3CCN(c4ccc(F)cc4)CC3)c3c2CCC3)C[C@H](C)O1 [Example 28, 2-{3-[(2R,6S)-2,6-dimethylmorpholine-4-carbonyl]-5,6-dihydrocyclopenta[c]pyrazol-1(4H)-yl}-1-[4-(4-fluorophenyl)piperazin-1-yl]ethan-1-one] | 337
22 | COc1cccc(N2CCN(C(=O)Cn3nc(C(=O)N4C[C@@H](C)O[C@@H](C)C4)c4c3CCC4)CC2)c1 [Example 29, 2-{3-[(2R,6S)-2,6-dimethylmorpholine-4-carbonyl]-5,6-dihydrocyclopenta[c]pyrazol-1(4H)-yl}-1-[4-(3-methoxyphenyl)piperazin-1-yl]ethan-1-one] | 316
23 | C[C@@H]1CN(C(=O)c2nn(CC(=O)N3CCN(c4cc(F)cc(F)c4F)CC3)c3c2CCC3)C[C@H](C)O1 [Example 30, 2-{3-[(2R,6S)-2,6-dimethylmorpholine-4-carbonyl]-5,6-dihydrocyclopenta[c]pyrazol-1(4H)-yl}-1-[4-(2,3,5-trifluorophenyl)piperazin-1-yl]ethan-1-one] | 474
